# Biological target: T1, human alpha 7-wt nAChR (Homo sapiens, UniProt P36544)
# T1 construct: expressed in transfected cells
# Assay: Ca2+ flux imaging (FDSS) (Protocol B)
# Format: cell-based
# Details: for EC50: potentiation of 100 μM choline, compounds 0.01 μM to 30 μM, read-out: a7-PAM-G_[33]_pEC50 pEC50 (converted); for Emax: efficacy of 100 μM choline defined as 100% in the absence of a PAM, read-out: a7-PAM-G_[33]_Eff_Curve_FI % Efficacy
# Experimental: Ca^2+ Flux Imaging (FDSS) (Protocol B)
# • Hanks buffered saline solution (HBSS, Invitrogen, Belgium), supplemented with 10 mM HEPES (Invitrogen, Belgium), CaCl2 to a final concentration of 5 mM, 0.1% Bovine serum albumin (Sigma-Aldrich NV, Belgium). b) Calcium-Sensitive Dye—Fluo-4AM • Fluo-4AM (Molecular Probes, USA) was dissolved in DMSO containing 10% Pluronic acid (Molecular Probes, USA) to give a stock solution which was diluted in assay buffer supplemented with 5 mM probenicid (Sigma, Aldrich NV, Belgium) to give a final concentration of 2 μM. c) 384-Well Plates • Black-sided, transparent bottomed 384 well plates coated with poly-D-lysine, PDL pre-coated (Corning, Incorporated, USA) d) Calcium Flux Measurement • A Functional drug screening system (FDSS, Hamamatsu) was used to measure intracellular free-calcium flux signals. Method
# Monolayers of human alpha 7-wt nAChR-expressing cells were grown in black-sided, transparent bottomed 384 well plates coated with PDL for 24 hours prior to loading with a fluorescent calcium indicator, fluo-4AM for up to 120 minutes.
# PAM activity was detected in real time by applying the compounds to be tested to the loaded cells along with an alpha 7 nicotinic receptor agonist during constant monitoring of cellular fluorescence in a FDSS. Compounds giving peak fluorescent responses greater than the response due to agonist alone, were considered to be alpha 7 nAChR PAMs. The alpha 7 nicotinic receptor agonist was choline, applied at a sub-maximal concentration of 100 μM. In a further setting of the present invention the compounds were applied prior to the alpha 7 nicotinic receptor agonist, in a particular 10 minutes prior to the agonist.
# A control response to choline was calculated on each plate from the difference in peak in fluorescence in wells receiving either choline or assay buffer alone. Compounds of the present invention were tested at a concentration range from 0.01 μM to 30 μM. Compounds were considered to have an interesting activity when they potentiated the choline signal at least with 200% when tested at a concentration of 30 μM (the efficacy of 100 μM choline was defined as 100% in the absence of a PAM). An EC50 (or pEC50) was determined as a concentration relating to half the maximal effect, when a clear sigmoidal curve with top plateau was obtained.
# T1 sequence (P36544 23-502): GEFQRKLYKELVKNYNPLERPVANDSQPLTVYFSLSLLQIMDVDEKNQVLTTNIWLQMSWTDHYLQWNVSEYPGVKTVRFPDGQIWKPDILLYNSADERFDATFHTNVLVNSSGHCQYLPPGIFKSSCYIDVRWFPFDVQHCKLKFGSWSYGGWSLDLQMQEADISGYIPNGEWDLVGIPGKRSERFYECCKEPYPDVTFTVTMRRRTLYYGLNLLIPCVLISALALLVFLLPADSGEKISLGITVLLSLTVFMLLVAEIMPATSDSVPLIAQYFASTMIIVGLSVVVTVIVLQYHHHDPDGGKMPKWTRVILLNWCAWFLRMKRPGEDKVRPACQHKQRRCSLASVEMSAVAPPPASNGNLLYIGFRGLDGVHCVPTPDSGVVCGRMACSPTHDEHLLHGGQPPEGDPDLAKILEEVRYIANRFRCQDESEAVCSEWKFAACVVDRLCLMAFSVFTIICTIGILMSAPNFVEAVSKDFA
SMILES,EC50,Emax
"Cc1cc(-c2sc(N3CC(C)OC(C)C3)nc2CNC(=O)CC2CC2)cc(C)n1 (racemic) [Compound 55, N-[[2-[2,6-dimethyl-4-morpholinyl]-5-(2,6-dimethyl-4-pyridinyl)-4-thiazolyl]methyl]-cyclopropaneacetamide]",794 nM,
"Cc1cc(-c2sc(N3CC(C)OC(C)C3)nc2CNC(=O)c2ccc(F)cc2C)cc(C)n1 (racemic) [Compound 56, N-[[2-[2,6-dimethyl-4-morpholinyl]-5-(2,6-dimethyl-4-pyridinyl)-4-thiazolyl]methyl]-4-fluoro-2-methyl-benzamide]",234 nM,
"Cc1cc(-c2sc(N3CC(C)OC(C)C3)nc2CNC(=O)C2CCC2)cc(C)n1 (racemic) [Compound 57, N-[[2-[2,6-dimethyl-4-morpholinyl]-5-(2,6-dimethyl-4-pyridinyl)-4-thiazolyl]methyl]-cyclobutanecarboxamide]",692 nM,783%
"CCCC(=O)NCc1nc(N2CC(C)OC(C)C2)sc1-c1cc(C)nc(C)c1 (racemic) [Compound 61, N-[[2-[2,6-dimethyl-4-morpholinyl]-5-(2,6-dimethyl-4-pyridinyl)-4-thiazolyl]methyl]-butanamide]",977 nM,
"Cc1cc(-c2sc(N3CC(C)OC(C)C3)nc2CNC(=O)c2conc2C)cc(C)n1 (racemic) [Compound 68, N-[[2-[2,6-dimethyl-4-morpholinyl]-5-(2,6-dimethyl-4-pyridinyl)-4-thiazolyl]methyl]-3-methyl-4-isoxazolecarboxamide]",912 nM,
"Cc1cc(-c2sc(N3C[C@@H](C)O[C@@H](C)C3)nc2CNC(=O)c2ccccc2F)cc(C)n1 [Compound 6, N-[[2-[(2R,6S)-2,6-dimethyl-4-morpholinyl]-5-(2,6-dimethyl-4-pyridinyl)-4-thiazolyl]methyl]-2-fluoro-benzamide]",,313%
"Cc1cc(-c2sc(N3C[C@@H](C)O[C@@H](C)C3)nc2CNC(=O)C2CCCC2)cc(C)n1 [Compound 16, N-[[2-[(2R,6S)-2,6-dimethyl-4-morpholinyl]-5-(2,6-dimethyl-4-pyridinyl)-4-thiazolyl]methyl]-cyclopentanecarboxamide]",22.4 nM,651%
"Cc1cc(-c2sc(N3C[C@@H](C)O[C@@H](C)C3)nc2CNC(=O)c2nc(C)oc2C(F)(F)F)cc(C)n1 [Compound 20, N-[[2-[(2R,6S)-2,6-dimethyl-4-morpholinyl]-5-(2,6-dimethyl-4-pyridinyl)-4-thiazolyl]methyl]-2-methyl-5-(trifluoromethyl)-4-oxazolecarboxamide]",1740 nM,253%
"Cc1ccc(C(=O)NCc2nc(N3C[C@@H](C)O[C@@H](C)C3)sc2-c2cc(C)nc(C)c2)c(C)c1 [Compound 21, N-[[2-[(2R,6S)-2,6-dimethyl-4-morpholinyl]-5-(2,6-dimethyl-4-pyridinyl)-4-thiazolyl]methyl]-2,4-dimethyl-benzamide]",72.4 nM,572%
"Cc1cc(-c2sc(N3C[C@@H](C)O[C@@H](C)C3)nc2CNC(=O)c2ccc(Cl)cc2C)cc(C)n1 [Compound 22, 4-chloro-N-[[2-[(2R,6S)-2,6-dimethyl-4-morpholinyl]-5-(2,6-dimethyl-4-pyridinyl)-4-thiazolyl]methyl]-2-methyl-benzamide]",20 nM,484%
"Cc1cc(-c2sc(N3C[C@@H](C)O[C@@H](C)C3)nc2CNC(=O)c2cccc(Cl)c2Cl)cc(C)n1 [Compound 26, 2,3-dichloro-N-[[2-[(2R,6S)-2,6-dimethyl-4-morpholinyl]-5-(2,6-dimethyl-4-pyridinyl)-4-thiazolyl]methyl]-benzamide]",141 nM,631%
"Cc1cc(-c2sc(N3C[C@@H](C)O[C@@H](C)C3)nc2CNC(=O)c2ccccc2)cc(C)n1 [Compound 27, N-[[2-[(2R,6S)-2,6-dimethyl-4-morpholinyl]-5-(2,6-dimethyl-4-pyridinyl)-4-thiazolyl]methyl]-benzamide]",525 nM,403%
"Cc1cc(-c2sc(N3C[C@@H](C)O[C@@H](C)C3)nc2CNC(=O)[C@H]2CCOC2)cc(C)n1 [Compound 28, (3S)-N-[[2-[(2R,6S)-2,6-dimethyl-4-morpholinyl]-5-(2,6-dimethyl-4-pyridinyl)-4-thiazolyl]methyl]tetrahydro-3-furancarboxamide]",447 nM,409%
"Cc1cc(-c2sc(N3C[C@@H](C)O[C@@H](C)C3)nc2CNC(=O)c2sc(C)nc2C)cc(C)n1 [Compound 29, N-[[2-[(2R,6S)-2,6-dimethyl-4-morpholinyl]-5-(2,6-dimethyl-4-pyridinyl)-4-thiazolyl]methyl]-2,4-dimethyl-5-thiazolecarboxamide]",,593%
"COc1ccc(C(=O)NCc2nc(N3C[C@@H](C)O[C@@H](C)C3)sc2-c2cc(C)nc(C)c2)cc1 [Compound 30, N-[[2-[(2R,6S)-2,6-dimethyl-4-morpholinyl]-5-(2,6-dimethyl-4-pyridinyl)-4-thiazolyl]methyl]-4-methoxy-benzamide]",513 nM,551%
"Cc1cc(-c2sc(N3C[C@@H](C)O[C@@H](C)C3)nc2CNC(=O)c2coc(C)n2)cc(C)n1 [Compound 31, N-[[2-[(2R,6S)-2,6-dimethyl-4-morpholinyl]-5-(2,6-dimethyl-4-pyridinyl)-4-thiazolyl]methyl]-2-methyl-4-oxazolecarboxamide]",,495%
"Cc1cc(-c2sc(N3C[C@@H](C)O[C@@H](C)C3)nc2CNC(=O)c2ccc(F)c(C(F)(F)F)c2)cc(C)n1 [Compound 33, N-[[2-[(2R,6S)-2,6-dimethyl-4-morpholinyl]-5-(2,6-dimethyl-4-pyridinyl)-4-thiazolyl]methyl]-4-fluoro-3-(trifluoromethyl)-benzamide]",275 nM,519%
"Cc1cc(-c2sc(N3C[C@@H](C)O[C@@H](C)C3)nc2CNC(=O)C2(C)CC2)cc(C)n1 [Compound 34, N-[[2-[(2R,6S)-2,6-dimethyl-4-morpholinyl]-5-(2,6-dimethyl-4-pyridinyl)-4-thiazolyl]methyl]-1-methyl-cyclopropanecarboxamide]",,237%
"Cc1cc(-c2sc(N3C[C@@H](C)O[C@@H](C)C3)nc2CNC(=O)C(C)(C)C)cc(C)n1 [Compound 47, N-[[2-[(2R,6S)-2,6-dimethyl-4-morpholinyl]-5-(2,6-dimethyl-4-pyridinyl)-4-thiazolyl]methyl]-2,2-dimethyl-propanamide]",,247%
"Cc1cc(-c2sc(N3C[C@@H](C)O[C@@H](C)C3)nc2CNC(=O)CCC(C)C)cc(C)n1 [Compound 51, N-[[2-[(2R,6S)-2,6-dimethyl-4-morpholinyl]-5-(2,6-dimethyl-4-pyridinyl)-4-thiazolyl]methyl]-4-methyl-pentanamide]",60.3 nM,960%
"Cc1cc(-c2sc(N3C[C@@H](C)O[C@@H](C)C3)nc2CNC(=O)[C@@H]2CCCN2C)cc(C)n1 [Compound 52, (2S)-N-[[2-[(2R,6S)-2,6-dimethyl-4-morpholinyl]-5-(2,6-dimethyl-4-pyridinyl)-4-thiazolyl]methyl]-1-methyl-2-pyrrolidinecarboxamide]",6170 nM,582%
"COCCC(=O)NCc1nc(N2C[C@@H](C)O[C@@H](C)C2)sc1-c1cc(C)nc(C)c1 [Compound 53, N-[[2-[(2R,6S)-2,6-dimethyl-4-morpholinyl]-5-(2,6-dimethyl-4-pyridinyl)-4-thiazolyl]methyl]-3-methoxy-propanamide]",2820 nM,
"Cc1cc(-c2sc(N3C[C@@H](C)O[C@@H](C)C3)nc2CNC(=O)c2cc(C(C)(C)C)nn2C)cc(C)n1 [Compound 54, 3-(1,1-dimethylethyl)-N-[[2-[(2R,6S)-2,6-dimethyl-4-morpholinyl]-5-(2,6-dimethyl-4-pyridinyl)-4-thiazolyl]methyl]-1-methyl-1H-pyrazole-5-carboxamide]",646 nM,
"CC(=O)NCc1nc(N2C[C@@H](C)O[C@@H](C)C2)sc1-c1cc(C)nc(C)c1 [Compound 60, N-[[2-[(2R,6S)-2,6-dimethyl-4-morpholinyl]-5-(2,6-dimethyl-4-pyridinyl)-4-thiazolyl]methyl]-acetamide]",,495%
"Cc1cc(-c2sc(N3CCOCC3)nc2CNC(=O)c2conc2C)cc(C)n1 [Compound 62, N-[[5-(2,6-dimethyl-4-pyridinyl)-2-(4-morpholinyl)-4-thiazolyl]methyl]-3-methyl-4-isoxazolecarboxamide]",4270 nM,633%
